In US20110159515A1, “COMPOSITIONS AND METHODS FOR THE RAPID GROWTH AND DETECTION OF MICROORGANISMS” (SOLUS SCIENTIFIC SOLUTIONS LIMITED, priority 2008, published 2011):

How the values were obtained:
[1] = test system: S. aberdeen; assay: Direct binding Salmonella assay (chemiluminescence immunosorbent)
Protocol: After 5 hours of culture, a 2 ml aliquot of the sample was removed and SDS was added to a final concentration of 0.5% (w/v). The sample was heated to 100° C. for 5 minutes and allowed to cool. One hundred microlitres of each test sample was added directly to a well of a solid white 96 well high binding microtitre plate (Greiner Bio One) and incubated at 37° C. for 30 minutes. During incubation, the lipid A portion of the LPS binds to the surface of the plate via non-covalent hydrophobic interactions (FIG. 1a (1), FIG. 1b(1)).
The final concentration of antibody per well was 50 ng. The plate-bound sample (Salmonella LPS/core oligosaccharide) and antibody were incubated in the coated wells for 30 minutes as 37° C. Following incubation, plates were washed three times in wash buffer and pat dried prior to detection (FIG. 1a(2), FIG. 1b(2)).
When the anti-Salmonella is directly labelled with acridinium ester, plates were placed into a luminometer. 30 μl of trigger solution A and 60 μl of trigger solution B was added to each well of the microtitre plate to initiate light output from conjugated acridinium ester (FIG. 1a(3)). The luminometer settings were as follows:
When the anti-Salmonella antibody is not labelled, a second binding member, a goat anti-mouse IgG2b conjugate is used. Post column IgG2b was diluted 1:100 in a diluent comprising 3% (w/v) non-fat milk powder and 0.05% (v/v) Tween 20 and 100 ul of this solution was added to each well of the plate (FIG. 1b(3)). Following incubation at 37° C. for 60 minutes the plate was washed four times in wash buffer, dried and read as above (FIG. 1b(4)).
The wells of an assay plate are coated with standard concentrations of bacteria for 1 hour at 37° C. These standard concentrations are: 10^6, 10^5, 5×10^4, 2.5×10^4, 10^4 and 5×10^3 and blank wells containing 10^6 E. coli. The fractions to be tested are diluted 1:100 in assay buffer and […] is added to each well and incubated at 37° C. for 20 minutes. The wells are then read on the luminometer, as above.

[2] = test system: S. aberdeen; assay: Direct binding Salmonella assay on food cultures; conditions: white plate, Lucy 1
Protocol: 25 g of a food sample were added to 225 ml culture medium according to the first aspect of the invention. Alternatively a surface swab may be taken from a 10×10 cm area on a carcass and cultured in 2-5 ml culture medium according to the first aspect of the invention. Specifically the culture medium comprised 1% peptone, 8 g/L sodium tetrathionate and 0.15 mg/L brilliant green. […]
The sample was heated to 100° C. for 5 minutes and allowed to cool. One hundred microlitres of each test sample was added directly to a well of a solid white 96 well high binding microtitre plate (Greiner Bio One) and incubated at 37° C. for 30 minutes. During incubation, the lipid A portion of the LPS binds to the surface of the plate via non-covalent hydrophobic interactions (FIG. 1a (1), FIG. 1b(1)). Following incubation the plate was emptied and the wells washed three times with a wash buffer comprising 0.01M sodium phosphate buffer, pH 7.4, containing 0.147M NaCl and 0.05 (v/v) Tween 20.
White Plate read on Lucy 1 luminometer

With CCCCCCCCCCCCOS(=O)(=O)[O-].[Na+] [SDS, sodium dodecyl sulphate] the “signal, direct binding Salmonella assay” value ([1]; 0.5% SDS (second block), conjugate 1:100, 5 × 10^4 S. aberdeen, black and white plates) was 2,213 ± 170, the “signal, release and detection of core oligosaccharide” value ([1]; 0.5% SDS, 10^4 bacteria (species not given)) was 495603 relative light units and the “enhancement of binding between binding member (antibody) and epitope” value ([1]; direct assay) was ≤ 10 fold. The “signal, food culture” value ([2]; 0.1% SDS, +ve Chicken (10 C.F.U. S. aberdeen, 18 hours)) was 131,488 ± 15,357, the “signal, food culture” value ([2]; 0.1% SDS, +ve Drinking Chocolate (10 C.F.U. S. aberdeen, 18 hours)) was 45,626 ± 3204 and the “signal, food culture” value ([2]; 0.1% SDS, +ve Mayonnaise (10 C.F.U. S. aberdeen, 18 hours)) was 746,670 ± 86,449. For the same compound, the “signal, food culture” value ([2]; 0.1% SDS, −ve Chicken) was 3426 ± 316, the “signal, food culture” value ([2]; 0.1% SDS, −ve Drinking Chocolate) was 1315 ± 63 and the “signal, food culture” value ([2]; 0.1% SDS, −ve Mayonnaise) was 4180 ± 610. For the same compound, the “signal, food culture” value ([2]; 0.5% SDS, +ve Chicken (10 C.F.U. S. aberdeen, 18 hours)) was 36,770 ± 2,020, the “signal, food culture” value ([2]; 0.5% SDS, +ve Drinking Chocolate (10 C.F.U. S. aberdeen, 18 hours)) was 110,756 ± 5737^ and the “signal, food culture” value ([2]; 0.5% SDS, +ve Mayonnaise (10 C.F.U. S. aberdeen, 18 hours)) was 387,924 ± 106,504. The “signal, food culture” value ([2]; 0.5% SDS, −ve Chicken) was 4494 ± 904, the “signal, food culture” value ([2]; 0.5% SDS, −ve Drinking Chocolate) was 3266 ± 142 and the “signal, food culture” value ([2]; 0.5% SDS, −ve Mayonnaise) was 3260 ± 733.
